The source of these data is paper PMC3393750, “Small Molecule Inhibitors of the LEDGF Site of Human Immunodeficiency Virus Integrase Identified by Fragment Screening and Structure Based Design” (PLoS ONE, 2012).

One may read the IC50 as the concentration needed to halve the response being measured. The term EC50 denotes the midpoint of the concentration-response curve. In general, CC50 refers to the concentration at which the toxic effect on the cells reaches its halfway point.

Structures are written as SMILES. Read-outs that look alike come from different tables or passages of the source.

Series [1] has as its target T1, His6-tagged HIV IN / Flag-tagged LEDGF interaction (Human immunodeficiency virus type 1 group M subtype B, UniProt P12497).
T1 construct: Hexa-His tagged full length HIV IN was expressed and purified as follows; made in house; host or cells: E. coli BL21(DE3), pET28b(+)
The series can be described thus: IN-LEDGF AlphaScreen (AS) assay. It is filed as binding, HIV-1. The conditions noted are these: 30 nM IN, 30 nM Flag-LEDGF, 30°C. The protocol:
(§1) For the IN-LEDGF AS assay, compound dilutions and His6-tagged IN (30 nM final concentration) were initially incubated together in 10 µl of reaction buffer (25 mM Tris-Cl pH 7.5, 25 mM NaCl, 5 mM MnCl2, 5 mM MgCl2, 5 mM BME, 50 µg/ml bovine serum albumin and 0.05% (v/v) Tween-20) for 10 min at room temperature in AlphaPlate™-384 SW plates (Perkin-Elmer). Subsequently, 10 µl reaction buffer containing Flag-tagged LEDGF (30 nM final concentration), AS Ni-chelate donor beads (Perkin-Elmer; 5 µg/ml final) and AlphaLISA anti-FLAG acceptor beads (Perkin-Elmer; 5 µg/ml final) were added and protein association allowed to occur for 1 hour in the dark at 30°C before emission from the donor beads was measured using a PHERAstar FS plate-reader (BMG Labtech). Counter screen assays to ensure the compounds were not inhibiting the binding of the His or FLAG tags to the beads or quenching of the signal, were performed under the same reaction conditions except that a Flag-His6 fusion protein was used (20 nM final) instead of individual His6-tagged IN and Flag-tagged LEDGF proteins, and the initial 10 min incubation at room temperature was omitted.
(Bead proximity is the source of the signal in Alpha formats.)

Series [2] addresses T2, HIV integrase catalytic core domain core3H (C56S, F139D, F185H) (Human immunodeficiency virus type 1 group M subtype B, UniProt P12497, C1203S/F1286D/F1332H).
T2 construct: catalytic core domain (CCD) IN (residues 50 to 210) containing the mutations C56S, F139D and F185H (core3H); made in house; host or cells: E. coli, pET28b(+)
The series can be described thus: SPR binding to core3H. The conditions noted are these: construct not given. The protocol: Core3H and core4H proteins (∼3×10^−8 moles) were “minimally” biotinylated on ice for 2 hours using an equimolar concentration of EZ-Link® Sulfo-NHS-LC-LC-Biotin (Pierce). To remove unreacted biotin reagent, biotinylated proteins were passed through a Superdex 75 (10/300 GL) column equilibrated in ‘SPR capture’ buffer (50 mM HEPES pH 7.4, 150 mM NaCl, 0.05% (v/v) Tween20, 5 mM DTT, 10 mM MgCl2). The eluted proteins were stored frozen in 50 µl aliquots at −70°C. Streptavidin (Sigma) was immobilized at 25°C onto a CM7 sensor chip (GE Healthcare) docked in a Biacore T200 upgrade instrument (GE Healthcare) using a previously described procedure resulting in immobilization levels of approximately 12000 RU of protein being coupled in all flow cells. The biotinylated core IN proteins were captured onto a Streptavidin chip surface in SPR capture buffer by injecting at 5 µL/min for 5 min over a single flow cell, typically resulting in immobilization of approximately 2300 RU of target protein. A minimally-biotinylated tyrosine kinase domain of CSF-1-R was captured (∼4300 RU) in a separate flow cell to provide for an unrelated negative control. […] All SPR binding experiments were performed at 20°C in SPR binding buffer (50 mM HEPES pH 7.4, 150 mM NaCl, 0.05% (v/v) Tween20, 5 mM DTT, 10 mM MgCl2, 5% (v/v) DMSO). Small molecules stock solutions were serially diluted (2-fold) in SPR binding buffer and injected for 30 sec contact time at 60 µL/min and then allowed to dissociate for 60 sec. The entire concentration series for each compound was performed in triplicate.
Raw sensorgram data were processed, solvent corrected and double referenced using Scrubber software (BioLogic Software, Australia). For easy comparison between data sets, all experiments were normalized using a normalization formula of Giannetti et al. To determine the binding affinity (KD), responses at equilibrium for each analyte were fitted to a 1∶1 steady state affinity model available within Scrubber.

For a further series, the system named is HIV-1NL4-3. The series can be described thus: Virus infectivity assay (p24) in HuT78 cells. It is filed as cell-based. To be noted: Human immunodeficiency virus 1, p24 production. The protocol:
(§2) HuT78 cells were seeded into 96 well microtiter plates at 50,000 cells per 50 µl per well in RF-10 containing 2 µg/ml polybrene (RF-10/2). Compounds were prepared to 4× final concentration in RF-10/2, and 30 µl was added to cells. HIV-1NL4–3 (40 µl in RF-10/2 containing 1600 plaque forming units (pfu)) was added to each well or 40 µl of RF-10/2 was added to the negative controls, and when assaying compound cytotoxicity. pfu were determined by titrating virus stocks on HT4LacZ cells as described by Rocancourt et al. After 24 hours, an additional 90 µl of media or media containing 1× compound was added to each well. At 4 days post-infection, 100 µl of media was removed from each well and replaced with 100 µl of fresh media with or without compound. 48 hours later supernatants were harvested and levels of extracellular p24 determined. Supernatants were diluted 1 in 10,000 and p24 levels assayed using the Vironostika p24 assay kit.

A short description of series [3]: Cell toxicity counter screen of virus infectivity assay. It is filed as cell-based. To be noted: human, HuT78 cells. As for the experimental part:
as §2
A general note: The purpose of a counterscreen is to sort out artefacts and off-target activity.

Series [4] has as its target T3, HIV IN (Human immunodeficiency virus type 1 group M subtype B, UniProt P12497). The conditions noted are these: read-out: IC50 inhibition of strand transfer activity of HIV IN; cited from earlier work.
The test system of series [5] is HIV-1. Also on record: method as in PMID 20473303. The conditions noted are these: MT-4 cells; read-out: EC50 HIV-1 infection of MT-4 cells; cited from earlier work.
Series [6] has as its system HIV-1. Further details: method as in PMID 20473303. To be noted: PBMC cells; read-out: EC50 HIV-1 infection of PBMC cells; cited from earlier work.
In series [7] the test system is LEDGF interaction with IN. Further details: method as in PMID 20473303. To be noted: read-out: AS IC50; cited from earlier work.
Series [8] concerns the target T3, HIV IN. The conditions noted are these: read-out: IC50 active site directed strand transfer assay; cited from earlier work.
For the next series, the system named is LEDGF site of HIV IN. Also on record: method as in PMID 21767569. The conditions noted are these: read-out: IC50 AS assay for binding at the LEDGF site; cited from earlier work.
The target in series [9] is T3, HIV IN. Briefly: Strand transfer assay which did not contain LEDGF. Format: biochemical. To be noted: without LEDGF; data not shown.
In another series the test system is Flag-His6 fusion protein. Briefly: AlphaScreen counter screen. To be noted: Flag-His6 fusion protein 20 nM. As for the experimental part:
as §1, with “omitted. The specificity of FLAG-LEDGF for IN binding was confirmed by competing the FLAG-LEDGF with untagged LEDGF. At a 1∶1 molar ratio with FLAG-LEDGF, untagged LEDGF reduced the AS signal by 50%.” for “omitted.”

Series [10] has as its system HIV-1 with IN N155H/E92Q (NHEQ). The series can be described thus: Single-round infectivity assay in 293T cells, IN NHEQ mutant. It is filed as cell-based. To be noted: Human immunodeficiency virus 1, HEK-293T, read-out: EC50 cell infectivity assay, IN NHEQ. The protocol: (§3) Single-round infectivity assays were performed with 293T cells. […]. […] Culture supernatants containing VSV-G pseudotyped virions were harvested 64 hours post-transfection, clarified by centrifugation to remove cell debris, and stored at −80°C. HIV IN mutations known to confer resistance to published IN inhibitors were prepared by site directed mutagenesis of the pol (IN) gene in a shuttle vector which contained the majority of the HIV gag and pol sequence. The mutated IN coding region was then sequence verified and exchanged for the wild-type coding sequence in the pHIV env-Luc reporter virus plasmid. Single round infection assays were conducted in 293T cells seeded in 96 well plates 16 hours prior to compound addition. Compounds were pre-incubated with cells for 4 hours at 37°C followed by the addition of sufficient virus to generate approximately 10,000 Luciferase light units in the absence of compound. Luciferase readout was measured 48 hours post-infection using the Bright-Glo™ reagent (Promega) according to the manufacturer’s instructions.

In series [11] the test system is HIV-1 with IN Q148H/G140S (QHGS). Briefly: Single-round infectivity assay in 293T cells, IN QHGS mutant. The conditions noted are these: Human immunodeficiency virus 1, HEK-293T, read-out: EC50 cell infectivity assay, IN QHGS. It is filed as cell-based. The protocol:
as §3

Another series concerns HIV-1 with wild type IN. Briefly: Single-round infectivity assay in 293T cells, wild type IN. Format: cell-based. To be noted: Human immunodeficiency virus 1, HEK-293T, read-out: EC50 cell infectivity assay, wild type IN. The protocol: as §3
In series [12] the target is T3, HIV IN. The conditions noted are these: cited from earlier work.
Series [13] has as its target T3, HIV IN. To be noted: read-out: IC50 strand transfer; cited from earlier work.

`COc1ccc(CN2CN(Cc3ccc4c(c3C(=O)O)OCO4)Cc3ccccc3C2=O)cc1` [Compound 5] had a concentration for half-maximal inhibition (IC50) in [1] of 600 µM.
`O=C(O)c1c(CN2Cc3ccccc3C(=O)N(Cc3ccccc3)C2)ccc2c1OCO2` [Compound 4]: the “binding in the SPR assay (in words)” value in series [2] is given as “did not bind”. For the same compound, in [1], the 50% inhibitory concentration (IC50) was determined as 110 µM. The EC50 in the series with HIV-1NL4-3 turned out to be 275 µM. The CC50 at 6 days in [3] was determined as 265 µM.
Turning to `C=CCN(Cc1ccccc1C(=O)NCc1ccc(OC)cc1)Cc1ccc2c(c1C(=O)O)OCO2` [Compound 9], the “binding in the SPR assay (in words)” value in series [2] is “retained SPR activity”. Besides, in series [1], the IC50 turned out to be 815 µM.
For the compound `CCCC(C(=O)O)c1c(C)nc2ccc(Cl)cc2c1-c1ccccc1` (stereo not shown) [LEDGIN-6], the values for the 50% inhibitory concentration (IC50) (at HIV IN [4]; in series [7]) were 19.5 µM and 1.37 µM, respectively. Besides, the values for the EC50 in the series with HIV-1 [5] and in the series with HIV-1 [6] were 2.73 µM and 3.45 µM, respectively.
On to `COc1ccc(CNC(=O)c2ccccc2CNCc2ccc3c(c2C(=O)O)OCO3)cc1` [Compound 6], for which, in [2], the “binding in the SPR assay (in words)” value was “binding could not be detected”. Besides, in [1], the IC50 came to 270 µM.
In the same order, the values of `CN(Cc1ccccc1C(=O)NCC1CCCCC1)Cc1ccc2c(c1C(=O)O)OCO2` [Compound 8] are “loss of SPR activity” and 100 µM.
Regarding `O=C(O)C(O)=CC(=O)c1cn(Cc2ccc(F)cc2)c2cccc(O)c12` [CHI-1043, 4-[1-(4-Fluorobenzyl)-4-hydroxy-1H-indol-3-yl]-2-hydroxy-4-oxobut-2-enoic acid], the IC50 at HIV IN [8] is 0.14 µM; in the series with LEDGF site of HIV IN, 36 µM.
`O=C(O)c1c(/C=C2\c3ccccc3CC2O)ccc2c1OCO2` (stereo not shown) [Compound 3]: in series [1], the IC50 is 270 µM.
As to `C=CCN(Cc1ccccc1C(=O)NC(CCC)c1ccc(OC)cc1)Cc1ccc2c(c1C(=O)O)OCO2` (stereo not shown) [Compound 10], the half-inhibitory concentration (IC50) in [1] was 29 µM; in the series with Flag-His6 fusion protein, 175 µM. Further, at HIV IN [9], the “activity in strand transfer assay” value was “inactive”.
In turn, `O=C1Cc2ccccc2/C1=C\c1ccc2c(c1C(=O)O)OCO2` [Compound 2] came in with an IC50 in series [1] of 200 µM.
`Cc1nnc(C(=O)NC(C)(C)c2nc(C(=O)NCc3ccc(F)cc3)c(O)c(=O)n2C)o1` [raltegravir, reference compound]: the EC50 in [10] is over 1 µM; in series [11] it was over 1 µM; with HIV-1 with wild type IN it was 0.01 µM.
In the case of `COc1ccc(CNC(=O)c2ccccc2CN(C)Cc2ccc3c(c2C(=O)O)OCO3)cc1` [Compound 7], in series [1], the IC50 turned out to be 220 µM.
As to `C=CCN(Cc1ccccc1C(=O)NC(c1ccc(OC)cc1)c1ccc(OC)cc1)Cc1ccc2c(c1C(=O)O)OCO2` [Compound 11], the half-maximal effective concentration (EC50) was 37 µM in series [10], 54 µM in series [11] and 29 µM with HIV-1NL4-3. On HIV IN [9], the “activity in strand transfer assay” value was “inactive”. The compound further showed a half-maximal cytotoxic concentration (CC50) at 6 days in series [3] of over 100 µM. Also, the IC50 in the series on Flag-His6 fusion protein was 145 µM.
As to `O=C(NCC1CCCCC1)c1cc(S(=O)(=O)N2CCCCC2)cc(O)c1O` [N-(cyclohexylmethyl)-2,3-dihydroxy-5-(piperidin-1-ylsulfonyl) benzamide], the IC50 on HIV IN [12] is 8 µM; on HIV IN [13], 19 µM.
